Results reported in publication PMC12417329 (Food Science & Nutrition, 2025).
Converted amounts (≈) assume the structure as drawn. “Also recorded” adds a separate entry of the source. Where two headings read alike, the source gives them in different places.

Tests used:
HPU = settings: ref Xiao et al. [2007]; cited from earlier work
H. pylori urease (HPU) [1] = biological target: T1, H. pylori urease (HPU) (Helicobacter pylori, UniProt P69996); experiment: Urease inhibition test (Berthelot, ammonia at 595 nm); type: biochemical
T1 construct: endogenous in cells; host or cells: Helicobacter pylori ATCC 43504 (extract, method of Matsubara et al. 2003)
Description: (§1) The standard strain H. pylori strains (ATCC 43504) were cultured on Mueller‐Hinton agar supplemented with 5% sheep blood. Bacterial cultures were maintained for 72 h at 37°C in a microaerophilic environment (5% O2, 10% CO2, 85% N2). For urease extraction, bacterial cells were harvested by centrifugation (5000×g, 10 min, 4°C) and subsequently washed three times with phosphate‐buffered saline (pH 7.4). Following turbidity adjustment using McFarland standards, H. pylori urease was prepared via a method established by Matsubara et al. ([2003]).
Urease activity was measured using spectrophotometry. The reaction was initiated by blending a particular amount of enzyme‐containing solution and 150 mM urea in 20 mM HEPES buffer (pH 7.5) at 37°C. Following 20 min, the Berthelot reagent was applied, and the quantity of ammonia produced by the urease‐urea reaction was detected at 595 nm (Wu et al. [2013]). The control group represented the activity of the uninhibited enzyme, which is 100% active. […]
Then 150 mM urea was added, and the reaction was carried out in the dark for 20 min. Afterward, the Berthelot reagent was added, and the quantity of ammonia produced by the urease‐urea reaction was detected at 595 nm. The residual enzyme activity (RA%) was calculated using the formula: RA% = activity with inhibitor/activity without inhibitor × 100%. […]

jack bean urease (JBU) [2] = biological target: T2, jack bean urease (JBU) (Canavalia ensiformis, UniProt P07374); experiment: biochemical
T2 construct: Jack bean urease (JBU) (Type III, 40.3 U/mg) were offered by Sigma; purchased Sigma Type III, 40.3 U/mg (catalogue number not given)

[3] = tested on: Helicobacter pylori strains (ATCC 43504, HP1869, HP1870); experiment: Minimal inhibitory concentration assay (agar dilution); type: cell-based; settings: ATCC43504, 120 h, pH 7.2, 5 days
Description: as §1
After solidification and overnight storage at 4°C to confirm sterility, plates showing no contamination were inoculated with 100 μL of H. pylori suspension (adjusted to McFarland 1.0 standard) and incubated microaerophilically (85% N2, 10% CO2, 5% O2) at 37°C for 5 days.

H. pylori urease (HPU) [4] = biological target: T1, H. pylori urease (HPU); experiment: Urease inhibition type and kinetics (Lineweaver-Burk plots, progress curves); type: biochemical
Description: (§2) The Lineweaver‐Burk plots were applied to calculate the change in the Michaelis constant (K M) and maximum velocity (V max). […] Additionally, the inhibition constant was derived by secondary replotting of Lineweaver‐Burk plots. All tests were performed in triplicate.
(§3) Enzyme activity in both procedures was measured as outlined in Section 2.4. Subsequently, the curve fitting software was used to fit the data according to the following formula: Pt=VS×t+V0−VS(1−e^−kapp×t)/kapp^−1 where, P(t) is the amount of product accumulated after t minutes of reaction, V 0 is the velocity at the start of the reaction, V S is the velocity at which the reaction reaches equilibrium, and kapp is the apparent velocity constant (Breitenbach and Hausinger [1988]). The experiments were repeated three times.

jack bean urease (JBU) [5] = biological target: T2, jack bean urease (JBU); experiment: as above; type: biochemical
Description: as §2, §3

H. pylori urease (HPU) [6] = biological target: T1, H. pylori urease (HPU); experiment: Reactivation of PIC-deactivated urease by GSH; type: biochemical
Description: (§4) After 20 min, half of the reaction solution was removed and added to 1.25 mM GSH solution. Enzyme activity was determined before and after the addition of GSH. After co‐incubation for different periods, the residual enzyme activity in the mixtures was detected as described in Section 2.4.

jack bean urease (JBU) [7] = biological target: T2, jack bean urease (JBU); experiment: Reactivation of PIC-deactivated urease by GSH; type: biochemical
Description: as §4

JBU = settings: cited from earlier work
[8] = 20 min preincubation at 37°C, 150 mM urea, pH 7.5, read-out: IC50
[9] = Lineweaver-Burk plot, progress curves
[10] = PIC-inactivated urease after adding 1.25 mM GSH
[11] = co-incubation with 1.5 mM PIC for 20 min

T1 sequence (P69996 whole entry): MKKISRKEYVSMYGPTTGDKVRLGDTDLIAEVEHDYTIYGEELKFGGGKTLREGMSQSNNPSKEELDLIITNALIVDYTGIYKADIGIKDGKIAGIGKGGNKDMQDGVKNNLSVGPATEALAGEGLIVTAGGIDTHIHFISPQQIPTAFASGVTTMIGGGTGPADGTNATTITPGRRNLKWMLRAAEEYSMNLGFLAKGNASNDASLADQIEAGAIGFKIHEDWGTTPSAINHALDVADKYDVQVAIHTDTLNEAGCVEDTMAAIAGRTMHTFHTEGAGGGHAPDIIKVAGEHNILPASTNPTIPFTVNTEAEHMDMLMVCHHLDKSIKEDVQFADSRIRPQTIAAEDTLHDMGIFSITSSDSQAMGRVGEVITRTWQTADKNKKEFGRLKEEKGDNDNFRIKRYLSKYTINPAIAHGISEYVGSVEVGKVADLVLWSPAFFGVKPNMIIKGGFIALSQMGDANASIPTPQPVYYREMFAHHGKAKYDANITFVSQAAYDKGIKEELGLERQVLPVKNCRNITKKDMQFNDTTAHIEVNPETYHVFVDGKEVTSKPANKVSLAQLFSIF
T1 sequence (P14916 whole entry, further chain): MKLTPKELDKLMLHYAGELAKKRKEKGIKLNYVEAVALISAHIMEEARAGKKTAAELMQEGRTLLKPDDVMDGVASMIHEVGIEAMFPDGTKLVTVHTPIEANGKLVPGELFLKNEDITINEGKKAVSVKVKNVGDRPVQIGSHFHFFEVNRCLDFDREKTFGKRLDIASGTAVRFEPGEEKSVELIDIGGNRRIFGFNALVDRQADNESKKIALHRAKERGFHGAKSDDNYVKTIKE
T2 sequence (P07374 whole entry, looked up): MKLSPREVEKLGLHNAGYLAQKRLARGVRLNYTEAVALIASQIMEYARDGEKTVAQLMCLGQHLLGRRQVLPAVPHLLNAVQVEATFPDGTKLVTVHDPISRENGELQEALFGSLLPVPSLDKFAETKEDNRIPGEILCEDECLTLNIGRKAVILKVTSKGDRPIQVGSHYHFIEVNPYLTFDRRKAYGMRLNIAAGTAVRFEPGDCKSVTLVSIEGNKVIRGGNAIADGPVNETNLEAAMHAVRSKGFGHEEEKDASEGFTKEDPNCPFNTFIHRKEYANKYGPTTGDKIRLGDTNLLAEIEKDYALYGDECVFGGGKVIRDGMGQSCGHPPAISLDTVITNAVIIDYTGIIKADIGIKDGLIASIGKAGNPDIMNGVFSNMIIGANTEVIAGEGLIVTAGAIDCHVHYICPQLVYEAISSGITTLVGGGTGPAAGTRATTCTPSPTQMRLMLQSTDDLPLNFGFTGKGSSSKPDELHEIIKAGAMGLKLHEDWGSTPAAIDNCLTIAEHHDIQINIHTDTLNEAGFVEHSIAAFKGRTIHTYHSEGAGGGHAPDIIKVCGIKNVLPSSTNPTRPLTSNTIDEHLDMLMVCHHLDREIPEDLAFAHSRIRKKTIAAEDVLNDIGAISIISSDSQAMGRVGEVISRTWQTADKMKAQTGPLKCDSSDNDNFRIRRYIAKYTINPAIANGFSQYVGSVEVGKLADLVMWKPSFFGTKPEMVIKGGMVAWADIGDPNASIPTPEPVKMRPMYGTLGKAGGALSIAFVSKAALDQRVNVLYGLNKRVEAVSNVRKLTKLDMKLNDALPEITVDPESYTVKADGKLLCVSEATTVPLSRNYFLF

O=c1c(-c2ccc(O)cc2)coc2c(O)c(O)ccc12 [7,8,4′‐trihydroxyisoflavone]
IC50 (HPU): 140 µM

CC(=O)NO [AHA, Acetohydroxamic acid, reference compound]
IC50 (H. pylori urease (HPU) [1]; [8]): 80 µM | IC50 (jack bean urease (JBU) [2]; [8]): 20 µM

Oc1cc(O)cc(/C=C/c2ccc(O)c(O)c2)c1 [PIC, Piceatannol]
MIC ([3]; pH 7.2, clinical strain HP1869, Mueller-Hinton agar): 100 µg/mL (≈ 409 µM) | MIC ([3]; pH 7.2, clinical strain HP1870, Mueller-Hinton agar): 100 µg/mL (≈ 409 µM) | MIC ([3]; pH 7.2, strain ATCC 43504 (standard strain), Mueller-Hinton agar): 150 µg/mL (≈ 614 µM) | IC50 (H. pylori urease (HPU) [1]): 670 ± 20 µM | IC50 (jack bean urease (JBU) [2]): 470 ± 10 µM | Ki (H. pylori urease (HPU) [4]): 630 ± 20 µM | inhibition type (H. pylori urease (HPU) [4]; [9]): slow‐binding, mixed inhibitor; also recorded: mixed‐type inhibitor; also recorded: slow‐binding inhibition | inhibitory constant Kis (H. pylori urease (HPU) [4]; secondary replot of Lineweaver-Burk intercepts): 0.94 ± 0.01 mM | Ki (jack bean urease (JBU) [5]): 340 ± 50 µM | inhibition type (jack bean urease (JBU) [5]; [9]): slow‐binding, non‐competitive inhibitor; also recorded: non‐competitive type; also recorded: slow‐binding inhibition | reversibility of inactivation (H. pylori urease (HPU) [6]; GSH reactivation): reversible | urease activity restored, of the initial activity (H. pylori urease (HPU) [6]; [10]): about 60% | initial activity lost (H. pylori urease (HPU) [6]; [11]): approximately 80% | reversibility of inactivation (jack bean urease (JBU) [7]; GSH reactivation): reversible | urease activity restored, of the initial activity (jack bean urease (JBU) [7]; [10]): about 60% | initial activity lost (jack bean urease (JBU) [7]; [11]): approximately 80%

O=C(O)[C@H]1O[C@@H](Oc2cc3oc(-c4ccccc4)cc(=O)c3c(O)c2O)[C@H](O)[C@@H](O)[C@@H]1O [Baicalin]
IC50 (JBU; ref Tan et al. [2013], Yu et al. [2015]): 2740 ± 510 µM

O=C(O)[C@H]1O[C@@H](Oc2cc3oc(-c4ccc(O)cc4)cc(=O)c3c(O)c2O)[C@H](O)[C@@H](O)[C@@H]1O [scutellarin]
IC50 (JBU; ref Wu et al. [2013]): 1350 ± 150 µM
